Results on 40 molecules are retold here after patent publication EP3928779A1 (Chugai Seiyaku Kabushiki Kaisha, priority 2014, dated 2016).

The subject of the assay is rat small-intestinal brush border membrane vesicles. Kind of assay: Inhibitory effect on 33PO4 uptake into rat small-intestinal brush border membrane vesicles (rapid filtration method). In kind it is biochemical. To be noted: 33PO4 uptake into rat small-intestinal BBMVs; test compound 1 µM; reacted for 60 seconds. In outline:
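Uptake of ^33PO4 was measured by rapid filtration and liquid scintillation counting of filter-retained vesicles, after quenching with ice-cold 110 mM NaCl/1 mM KH2PO4/10 mM HEPES pH 7.5. Vesicles were brush border membranes from the upper small intestine of female Wistar rats aged 4–5 weeks.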
Take `CN(C)S(=O)(=O)c1ccc(-c2cc(C(F)(F)F)ccc2NC(=O)C2=C(O)[C@@]3(C)CCCN3N(Cc3cccc(F)c3F)C2=O)s1` [Example 71]: the “Rate of uptake inhibition (%) (1 µM)” value is 97%.
Consider `COc1cc(C)c(-c2cc(C(F)(F)F)ccc2NC(=O)C2=C(O)[C@@]3(C)CCCN3N(Cc3cccc(F)c3F)C2=O)cn1` [Example 80], for which the “Rate of uptake inhibition (%) (1 µM)” value turned out to be 75%.
In the case of `CN(C)S(=O)(=O)c1ccc(-c2nc(C(F)(F)F)ccc2NC(=O)C2=C(O)[C@@]3(C)CCCN3N(Cc3cccc(F)c3F)C2=O)cc1` [Example 87], the “Rate of uptake inhibition (%) (1 µM)” value is listed as 84%.
Turning to `C[C@]12CCCN1N(Cc1cccc(Cl)c1)C(=O)C(C(=O)Nc1ccc(C(F)(F)F)cc1-c1cc(C(F)(F)F)ncn1)=C2O` [Example 181], the “Rate of uptake inhibition (%) (1 µM)” value was 85%.
With `CN1N(Cc2ccc(OCCCCOC[C@H](O)CO)c(F)c2F)C(=O)C(C(=O)Nc2ccc(C(F)(F)F)cc2-c2ccc(C(F)(F)F)nc2)=C(O)C12CCCC2` [Example 387], the “Rate of uptake inhibition (%) (1 µM)” value came out at 23%.
As for `CN1N(Cc2ccc(OCCCOC[C@H](O)CO)c(F)c2F)C(=O)C(C(=O)Nc2ccc(C(F)(F)F)cc2-c2ccc(C(F)(F)F)nc2)=C(O)C12CCCC2` [Example 386], the “Rate of uptake inhibition (%) (1 µM)” value is 36%.
Consider `CN1N(Cc2ccc(OCCN3CCN(CCOCCO)CC3)c(F)c2F)C(=O)C(C(=O)Nc2ccc(C(F)(F)F)cc2-c2cc(C(F)(F)F)ncn2)=C(O)C12CCC2` [Example 361], for which the “Rate of uptake inhibition (%) (1 µM)” value worked out at 20%.
`C[C@]12CCCN1N(Cc1ccccc1)C(=O)C(C(=O)Nc1ccc(C(F)(F)F)cc1-c1cc(C(F)(F)F)ncn1)=C2O` [Example 188]: the “Rate of uptake inhibition (%) (1 µM)” value worked out at 93%.
For `CN1N(Cc2ccc(OCCCCCC(=O)O)c(F)c2F)C(=O)C(C(=O)Nc2ccc(C(F)(F)F)cc2-c2cc(C(F)(F)F)ncn2)=C(O)C12CCCC2` [Example 334], the “Rate of uptake inhibition (%) (1 µM)” value is recorded as 22%.
As for `COCCOCCOCCCCCCCCN1C(=O)C(C(=O)Nc2ccc(C(F)(F)F)cc2-c2cc(C(F)(F)F)ncn2)=C(O)[C@@]2(C)CCCN12` [Example 236, (4aR)-4-Hydroxy-1-[8-[2-(2-methoxyethoxy)ethoxy]octyl]-4a-methyl-2-oxo-N-[4-(trifluoromethyl)-2-[6-(trifluoromethyl)pyrimidine-4-yl]phenyl]-6,7-dihydro-5H-pyrrolo[1,2-b]pyridazine-3-carboxamide], the “Rate of uptake inhibition (%) (1 µM)” value was 60%.
On to `CN1N(Cc2cccc(F)c2F)C(=O)C(C(=O)Nc2ccc(C(F)(F)F)cc2-c2cc(C(F)(F)F)ncn2)=C(O)C12CCCC2` [Example 260], for which the “Rate of uptake inhibition (%) (1 µM)” value is listed as 70%.
For the molecule `CC(C)[C@H]1C(O)=C(C(=O)Nc2ccc(C(F)(F)F)cc2-c2ccc(C(F)(F)F)nc2)C(=O)N(Cc2ccc(OCCN3CCOCC3)c(F)c2F)N1C` [Example 280], the “Rate of uptake inhibition (%) (1 µM)” value came to 50%.
For `C[C@]12CCCN1N(Cc1ccc(C#CCOCCCCO)c(F)c1F)C(=O)C(C(=O)Nc1ccc(C(F)(F)F)cc1-c1ccc(C(F)(F)F)nc1)=C2O` [Example 128] the value was 72%; for `C[C@]12CCCN1N(Cc1cccc(F)c1F)C(=O)C(C(=O)Nc1ccc(C(F)(F)F)cc1-c1cnc(Cl)cn1)=C2O` [Example 74], 82%; for `COc1ccc(OC)c(CN2C(=O)C(C(=O)Nc3ccc(C(F)(F)F)cc3-c3ccc(C(F)(F)F)nc3)=C(O)[C@@]3(C)CCCN23)c1` [Example 176], 75%.
With `CN1N(Cc2ccc(NCCCN3CCOCC3)c(F)c2F)C(=O)C(C(=O)Nc2ccc(C(F)(F)F)cc2-c2cc(C(F)(F)F)ncn2)=C(O)C12CCCC2` [Example 446], the “Rate of uptake inhibition (%) (1 µM)” value is 31%.
Take “(4aS)-1-[(3-Fluorophenyl)methyl]-4-hydroxy-N-[5-methyl-2-(trifluoromethyl)furan-3-yl]-2-oxo-5,6,7,8-tetrahydro-4aH-pyrido[1,2-b]pyridazine-3-carboxamide [Example 16]”: the “Rate of uptake inhibition (%) (1 µM)” value turned out to be 38%.
For `CN1[C@@H](C(C)(C)C)C(O)=C(C(=O)Nc2ccc(Cl)cc2-c2cc(C#N)ncn2)C(=O)N1Cc1ccc(OCCN2CCOCC2)c(F)c1F` [Example 272] the value was 43%; for `C[C@]12CCCN1N(Cc1cccc(F)c1F)C(=O)C(C(=O)Nc1ccc(C(F)(F)F)cc1-c1cnc(N3CC4(COC4)C3)c(C#N)c1)=C2O` [Example 111, (4aR)-N-[2-[5-Cyano-6-(2-oxa-6-azaspiro[3.3]heptan-6-yl)pyridin-3-yl]-4-(trifluoromethyl)phenyl]-1-[(2,3-difluorophenyl)methyl]-4-hydroxy-4a-methyl-2-oxo-6.7-dihydro-5H-pyrrolo[1,2-b]pyridazine-3-carboxamide], 56%; for `COC1(C)CN(CCOc2ccc(CN3C(=O)C(C(=O)Nc4ccc(C(F)(F)F)cc4-c4cc(C(F)(F)F)ncn4)=C(O)C4(CCC4)N3C)c(F)c2F)C1` [Example 356], 58%.
For `Cc1cccc(CN2C(=O)C(C(=O)Nc3ccc(C(F)(F)F)cc3-c3cc(C(F)(F)F)ncn3)=C(O)[C@@]3(C)CCCN23)c1` [Example 186] the value was 88%; for `Cc1cc(NC(=O)C2=C(O)[C@@H]3CC(C)(C)CN3N(Cc3cccc(F)c3)C2=O)c(C(F)(F)F)o1` [Example 3], 11%.
For `CN1[C@@H](C(C)(C)C)C(O)=C(C(=O)Nc2ccc(Br)c(C(F)(F)F)n2)C(=O)N1Cc1cccc(F)c1F` [Example 242] the value was 69%; for `COCCN(C)CCOCCOCCOCCOCCOc1ccc(CN2C(=O)C(C(=O)Nc3ccc(C(F)(F)F)cc3-c3cc(C(F)(F)F)ncn3)=C(O)C3(CCCC3)N2C)c(F)c1F` [Example 432], 11%.
Consider `COc1cccc(-c2cc(C(F)(F)F)ccc2NC(=O)C2=C(O)[C@@]3(C)CCCN3N(Cc3ccc(C#CCOCCCCO)c(F)c3F)C2=O)c1OC` [Example 123, (4aR)-1-[[2,3-Difluoro-4-[3-(4-hydroxybutoxy)prop-1-ynil]phenyl]methyl)-N-[2-(2.3-dimethoxyphenyl)-4-(trifluoromethyl)phenyl]-4-hydroxy-4a-methyl-2-oxo-6,7-dihydro-5H-pyrrolo[1,2-b]pyridazine-3-carboxamide], for which the “Rate of uptake inhibition (%) (1 µM)” value is recorded as 87%.
With `Cc1nc(NC(=O)C2=C(O)C3(CCCC3)N(C)N(Cc3cccc(F)c3F)C2=O)ccc1Br` [Example 262], the “Rate of uptake inhibition (%) (1 µM)” value is 43%.
For `CCCCCN1C(=O)C(C(=O)Nc2ccc(C(F)(F)F)cc2-c2ccc(C(F)(F)F)nc2)=C(O)[C@@]2(C)CCCN12` [Example 26] the value was 72%; for `CN1N(Cc2ccc(OCCN3CCOCC3)c(F)c2F)C(=O)C(C(=O)Nc2ccc(C(F)(F)F)cc2-c2cc(C(F)(F)F)ncn2)=C(O)C12CCCC2` [Example 318, 7-[[2,3-Difluoro-4-(2-morpholin-4-ylethoxy)phenyl]methyl]-10-hydroxy-6-methyl-8-oxo-N-[4-(trifluoromethyl)-2-[6-(tritluoromethyl)pyrimidin-4-yl]phenyl]-6,7-diazaspiro[4.5]dec-9-ene-9-carboxamide], 43%.
In the case of `COCCN(C)CCOCCOCCOc1ccc(CN2C(=O)C(C(=O)Nc3ccc(C(F)(F)F)cc3-c3cc(C(F)(F)F)ncn3)=C(O)C3(CCCC3)N2C)c(F)c1F` [Example 430], the “Rate of uptake inhibition (%) (1 µM)” value came to 29%.
As to `CN(C)C(=O)N1CCN(CCOc2ccc(CN3C(=O)C(C(=O)Nc4ccc(C(F)(F)F)cc4-c4cc(C(F)(F)F)ncn4)=C(O)C4(CCC4)N3C)c(F)c2F)CC1` [Example 364], the “Rate of uptake inhibition (%) (1 µM)” value is recorded as 36%.
As to `CN(CCOc1ccc(CN2C(=O)C(C(=O)Nc3ccc(C(F)(F)F)cc3-c3cc(C(F)(F)F)ncn3)=C(O)C3(CCCC3)N2C)c(F)c1F)C1CCOC1` (stereo not shown) [Example 366], the “Rate of uptake inhibition (%) (1 µM)” value came out at 38%.
The value for `Cc1c(C#N)ncnc1-c1cc(C(F)(F)F)ccc1NC(=O)C1=C(O)C2(CCC2)N(C)N(Cc2ccc(OCCN3CCOCC3)c(F)c2F)C1=O` [Example 283] was 45%.
`C[C@]12CCCN1N(Cc1ccc(OCCN3CCOCC3)c(F)c1F)C(=O)C(C(=O)Nc1ccc(C(F)(F)F)nc1-c1cncc(C(F)(F)F)c1)=C2O` [Example 106]: the “Rate of uptake inhibition (%) (1 µM)” value was found to be 79%.
For `CN1N(Cc2ccc(OC3COC3)c(F)c2F)C(=O)C(C(=O)Nc2ccc(C(F)(F)F)cc2-c2cc(C(F)(F)F)ncn2)=C(O)C12CCC2` [Example 403, 6-(2,3-Difluoro-4-(oxetan-3-yloxy)benzyl)-9-hydroxy-5-methyl-7-oxo-N-(4-(trifluoromethyl)-2-(6-(trifluoromethyl)pyrimidin-4-yl)phenyl)-5,6-diazaspiro[3.5]non-8-ene-8-carboxamide] the value was 71%; for `COc1cncc(-c2cc(C(F)(F)F)ccc2NC(=O)C2=C(O)[C@@]3(C)CCCN3N(Cc3cccc(F)c3F)C2=O)c1` [Example 81], 74%; for `CN1[C@@H](C(C)(C)C)C(O)=C(C(=O)Nc2ccc(Cl)cc2-c2cc(C(F)(F)F)ncn2)C(=O)N1Cc1cccc(F)c1F` [Example 237], 51%.
On to `C[C@]12CCCN1N(Cc1cccc(C#N)c1)C(=O)C(C(=O)Nc1cc(F)c(Br)c(F)c1)=C2O` [Example 220], for which the “Rate of uptake inhibition (%) (1 µM)” value was determined as 96%.
For `CN1N(Cc2ccc(OCC3CCCO3)c(F)c2F)C(=O)C(C(=O)Nc2ccc(C(F)(F)F)cc2-c2cc(C(F)(F)F)ncn2)=C(O)C12CCCC2` (stereo not shown) [Example 413] the value was 34%.
For `CN1N(Cc2ccc(OCCN3CCN(CCOCCO)CC3)c(F)c2F)C(=O)C(C(=O)Nc2ccc(C(F)(F)F)cc2-c2cc(C(F)(F)F)ncn2)=C(O)C12CCCC2` [Example 378] the value was 35%; for `CN1N(Cc2ccc(OCCCCCOC[C@H](O)CO)c(F)c2F)C(=O)C(C(=O)Nc2ccc(C(F)(F)F)cc2-c2cc(C(F)(F)F)ncn2)=C(O)C12CCCC2` [Example 394], 45%.
